Measured values reported in patent US6403606B1, “Thienopyridine derivatives and their use” (Takeda Chemical Industries Ltd., priority 1996, dated 2002).
Marks after values point to notes of the source that are not given here.

Tests used:
[1] = system: fetal rat bone culture (humeri, radii and ulnae); experiment: Bone resorption inhibitory activity, 45Ca release from fetal rat bone culture (Test Example 2B); type: cell-based, Sprague-Dawlay rat; settings: 10 μM compound, 2 days culture; 45Ca release as % of control without compound (lower = more inhibition)
Description: (§1) The measurement of bone resorption inhibitory activity was carried out according to the method of Raisz [J. Clin. Invest., 44, 103-116 (1965)]. Namely, 50 μCi of ^45Ca (radioisotope of calcium in CaCl2 solution) was subcutaneously injected into a Sprague-Dawlay rat of 18th day of pregnancy. On the next day, the abdomen was opened and a fetal rat was taken out sterilely. The left and right humeri (radii and ulnae) were removed from the body under a dissection microscope and connective tissues and cartilages were removed as much as possible. Thus, bone culture samples were prepared. The bone was incubated in a medium (0.6 ml) of BCJb medium (Fitton-Jackson modification: GIBCO Laboratories, U.S.A.) containing 2 mg/ml of bovine serum albumin at 37° C. for 24 hours in an atmosphere of 5% of CO2 in air. The bones were cultured for an additional 2 days in the above medium containing a final concentration of 10 μM of the compound. The ratio (%) of ^45Ca released from the bone into the medium was calculated according to the following equation. [formula]
The bones from the same litter were cultured for 2 days the same manner without addition of the compound, and used as the control. The mean±standard deviation of the values for five bones of each group was calculated. The ratio (%) of this value to the control value was calculated. The results are shown in Table 4 (In the tables hereinafter, Ex. No. indicates Example No.).

Rat Adjuvant Arthritis [2] = experiment: Activity on rat adjuvant arthritis (Test Example 1B); type: in vivo, Male Lewis rats; settings: N=6; for Body weight gain rate (%): day 14; for Edema inhibitory rate (%): left hind paw volume day 14
Description: (§2) Male Lewis rats (7 weeks old, Clea Japan) were sensitized by intracutaneous injection of 0.05 ml of Freund's complete adjuvant (0.5% dead tubercle bacillus cell suspension in liquid paraffin) at the right hind paw. The test drug (6.25 mg/kg or 3.13 mg/kg), in a suspension in 0.5% methyl cellulose, was administered once daily for 14 days starting just before sensitization (day 0). At the days 0 and 14, the left hind paw volume and body weight of the animals were measured using a plethysmometer (manufactured by Ugo Basile Company, Italy) and an electronic balance (EB-3200D, manufactured by Shimadzu Corporation, Japan), respectively, and paw swelling suppression rate (%) and body weight gain rate (%), relative to non-sensitized rats, were determined.
(§3) The results, expressed in mean±S.E. for each group (N=6), were compared and statistically analyzed by Dunnet method. Level of significance was set below 5%.

Rat Adjuvant Arthritis [3] = experiment: Activity on rat adjuvant arthritis (Test Example 1A); type: in vivo, Male Lewis rats; settings: 6.25 mg/kg once daily for 14 days, relative to non-sensitized rats, N=6; for Body weight gain rate (%): day 14; for Edema inhibitory rate (%): left hind paw volume day 14
Description: as §2, with “(6.25” for “(6.25 mg/kg or 3.13”
as §3

[4] = system: fetal rat bone culture (humeri, radii and ulnae); experiment: Bone resorption inhibitory activity, 45Ca release from fetal rat bone culture (Test Example 2A); type: cell-based, Sprague-Dawlay rat; settings: 10 μM compound, 2 days culture; 45Ca release as % of control without compound (lower = more inhibition)
Description: as §1
The bones from the same litter were cultured for 2 days the same manner without addition of the compound, and used as the control. The mean±standard deviation of the values for five bones of each group was calculated. The ratio (%) of this value to the control value was calculated. The results are shown in Table 2 (In the tables hereinafter, Ex. No. indicates Example No.).

[5] = 6.25 mg/kg once daily for 14 days
[6] = 3.13 mg/kg once daily for 14 days

Row | Compound | melting point | Bone resorption inhibitory activity (^45Ca release) (% based on the control value) [4] | also measured
1 | 7-benzyl-3-chloro-4-(3,4-dimethoxyphenyl)-2-(2-oxo-1-piperidinylmethyl)-5,6,7,8-tetrahydrothieno[2,3-b:5,4-c′]dipyridine [Example 24B] |  |  | Bone resorption inhibitory inhibitory activity (^45Ca release) (% based on the control value) [1]: 44** % based on the control value
2 | 7-benzyl-3-chloro-4-(3,4-dimethoxyphenyl)-2-(2-oxo-1-pyrrolidinylmethyl)-5,6,7,8-tetrahydrothieno[2,3-b:5,4-c′]dipyridine [Example 28B] |  |  | Body weight gain rate (%) (Rat Adjuvant Arthritis [2]; [5]): 19** %; Edema inhibitory rate (%) (Rat Adjuvant Arthritis [2]; [5]): 78** %; Bone resorption inhibitory inhibitory activity (^45Ca release) (% based on the control value) [1]: 47** % based on the control value
3 | 7-benzyl-3-chloro-4-(4-hydroxy-3-methoxyphenyl)-2-(2-oxo-1-pyrrolidinylmethyl)-5,6,7,8-tetrahydrothieno[2,3-b:5,4-c′]dipyridine [Example 29B] |  |  | Body weight gain rate (%) (Rat Adjuvant Arthritis [2]; [6]): 12%; Edema inhibitory rate (%) (Rat Adjuvant Arthritis [2]; [6]): 69** %
4 | CCOC(=O)c1c(CN(CC)CC)nc2sc3c(c2c1-c1ccc(OC)c(OC)c1)CCN(C(=O)c1ccccc1)C3 [Example 1A, ethyl 7-benzoyl-2-(N,N-diethylaminomethyl)-4-(3,4-dimethoxyphenyl)-5,6,7,8-tetrahydrothieno[2,3-b:5,4-c′]dipyridine-3-carboxylate] |  |  | Body weight gain rate (%) (Rat Adjuvant Arthritis [3]): 15%; Edema inhibitory rate (%) (Rat Adjuvant Arthritis [3]): 49%
5 | CCOC(=O)c1c(CN(CC)CC)nc2sc3c(c2c1-c1ccc(OC)c(OC)c1)CCN(C(=O)c1ccc(Cl)cc1)C3 [Example 2A, ethyl 7-(4-chlorobenzoyl)-2-(N,N-diethylaminomethyl)-4-(3,4-dimethoxyphenyl)-5,6,7,8-tetrahydrothieno[2,3-b:5,4-c′]dipyridine-3-carboxylate] | 96 to 98 °C | 62** % based on the control value | 
6 | CCOC(=O)c1c(CN(CC)CC)nc2sc3c(c2c1-c1ccc(OC)c(OC)c1)CCNC3 [Example 5A, ethyl 2-(N,N-diethylaminomethyl)-4-(3,4-dimethoxyphenyl)-5,6,7,8-tetrahydrothieno-[2,3-b:5,4-c′]dipyridine-3-carboxylate] | 72 to 75 °C | 72* % based on the control value | 
7 | CCOC(=O)c1c(CN(CC)CC)nc2sc3cnccc3c2c1-c1ccc(OC)c(OC)c1 [Example 7A, ethyl 2-(N,N-diethylaminomethyl)-4-(3,4-dimethoxyphenyl)thieno[2,3-b:5,4-c′]dipyridine-3-carboxylate] |  |  | Body weight gain rate (%) (Rat Adjuvant Arthritis [3]): 26** %; Edema inhibitory rate (%) (Rat Adjuvant Arthritis [3]): 84** %
8 | CCOC(=O)c1c(CN(CC)CC)nc2sc3c(c2c1-c1ccc(OC)c(OC)c1)CCN(C(=O)Nc1ccccc1)C3 [Example 12A, ethyl 2-(N,N-diethylaminomethyl)-4-(3,4-dimethoxyphenyl)-7-phenylcarbamoyl-5,6,7,8-tetrahydrothieno[2,3-b:5,4-c′]dipyridine-3-carboxylate] | 154 to 155 °C | 77* % based on the control value | 
9 | CCOC(=O)c1c(CN(CC)CC)nc2sc3c(c2c1-c1ccc(OC)c(OC)c1)CCN(C(C)=O)C3 [Example 15A, ethyl 7-acetyl-2-(N,N-diethylaminomethyl)-4-(3,4-dimethoxyphenyl)-5,6,7,8-tetrahydrothieno[2,3-b:5,4-c′]dipyridine-3-carboxylate] |  |  | Body weight gain rate (%) (Rat Adjuvant Arthritis [3]): 9%; Edema inhibitory rate (%) (Rat Adjuvant Arthritis [3]): 60** %
10 | COc1ccc(-c2c(Cl)c(CN3CCCCCC3=O)nc3sc4c(c23)CCN(Cc2ccccc2)C4)cc1OC [Example 25B, 7-benzyl-3-chloro-4-(3,4-dimethoxyphenyl)-2-(2-oxohexamethyleneiminomethyl)-5,6,7,8-tetrahydrothieno[2,3-b:5,4-c′]dipyridine] | 113 to 114 °C |  | Bone resorption inhibitory inhibitory activity (^45Ca release) (% based on the control value) [1]: 52** % based on the control value
11 | CCOC(=O)c1c(CCCn2cncn2)nc2sc3c(c2c1-c1ccc(OC)c(OC)c1)CCN(C(=O)c1ccc(Cl)cc1)C3 [Example 27A, ethyl 7-(4-chlorobenzoyl)-4-(3,4-dimethoxyphenyl)-5,6,7,8-tetrahydro-2-[3-(1,2,4-triazol-1-yl]propyl]thieno[2,3-b:5,4-c′]dipyridine-3-carboxylate] | 114 to 116 °C | 74* % based on the control value | 
12 | CCOC(=O)c1c(CCCCn2cncn2)nc2sc3c(c2c1-c1ccc(OC)c(OC)c1)CCN(C(=O)c1ccc(Cl)cc1)C3 [Example 28A, ethyl 7-(4-chlorobenzoyl)-4-(3,4-dimethoxyphenyl)-5,6,7,8-tetrahydro-2-[4-(1,2,4-triazol-1-yl]butyl]thieno[2,3-b:5,4-c′]dipyridine-3-carboxylate] | 165 to 166 °C | 67*** % based on the control value | 
13 | CCOC(=O)c1c(CN(CC)CC)nc2sc3c(c2c1-c1ccc(CC)cc1)CCNC3 [Example 33A, ethyl 4-(4-ethylphenyl)-5,6,7,8-tetrahydro-2-(N,N-diethylaminomethyl)thieno[2,3-b:5,4-c′]dipyridine-3-carboxylate] | 107 to 108 °C | 72** % based on the control value | 
